Data set [1] in a line: Release behavior of citric acid from liposomes in a weakly basic environment (pH meter). The data set is classed as physicochemical. The note with it: after pH of the mixture changed to 7.5 to 8.5 with sodium hydroxide. How it is done:
The release behavior of citric acid from liposomes was studied in a weakly basic environment. First, to an aqueous liquid of citric acid having liposomes dispersed therein ([lipid]=250 μM, 4 mL) or an aqueous solution of citric acid (30 mM, pH 2.2, 4 mL), 2M aqueous sodium hydroxide (170 μL) was added to adjust the pH of the mixture to 6.5. Then, 300 mM aqueous sodium hydroxide (60 μL) was added to change the pH of the mixture to 7.5 to 8.5. The subsequent pH change behavior was monitored over time with a pH meter.

Data set [2] can be described thus: pH change behavior of citric acid-loaded liposomes added to aqueous sodium hydroxide. The data set is classed as physicochemical. Conditions: upon addition to 4 mL of 300 μM aqueous sodium hydroxide (pH 10.5). The procedure:
Each lipid mixture (20 mg) was hydrated in 20 mM citric acid (pH 2.2), and the dispersion was subjected to extrusion (final pore size: 0.22 μm) to prepare liposomes having a particle size of 200 to 300 nm. When required, pH change behavior was measured with a pH meter immediately after addition of the liposome dispersion ([lipid]=55 mg/mL, 10 μL) or citric acid (20 mM, 10 μL) to 4 mL of 300 μM aqueous sodium hydroxide (pH 10.5).

The structures appear in SMILES notation.

For `O=C(O)CC(O)(CC(=O)O)C(=O)O` [citric acid], the “nearly constant pH reached” value in data set [1] is roughly 7. Moreover, in data set [2], the “pH reached (sudden decrease)” value is 7.0.

The record behind these values is patent US8871252B2, “pH-responsive liposome” (Nanotheta Co, Ltd., priority 2009, dated 2014).
